Assay results from patent publication US20090143279A1 (priority 2007, published 2009).
Read-outs that look alike come from different tables or passages of the source.

Columns and labels:
mtOXPHOS transcripts = type: cell-based, mouse
OXPHOS gene expression = type: cell-based, mouse
[1] = tested on: cellular dehydrogenase activity
cytochrome c = type: cell-based, mouse
nuOXPHOS transcripts = type: cell-based, mouse
reactive oxygen species = type: cell-based, mouse
[2] = tested on: mitochondrial membrane potential; type: cell-based, mouse
[3] = Conc 20 μM, normalized score vs mock-treated (DMSO) wells
[4] = composite Z-score vs DMSO, Conc 20 μM
[5] = Table 5, C2C12 myotubes, 48 h, composite Z-score
[6] = 20 μM, composite Z-score vs DMSO
[7] = composite Z-score vs DMSO wells, Conc 20 μM
[8] = composite Z-score vs DMSO, Conc 8.66 μM

**Q.** Which results are given for `OC[C@H]1O[C@@H](Oc2cc(O)cc(/C=C/c3ccc(O)cc3)c2)[C@H](O)[C@@H](O)[C@@H]1O` [piceid]?
**A.** mitoOX (composite Z-score) (mtOXPHOS transcripts; [3]): 0.124; Viability (composite Z-score) (C2C12 myotubes; [3]): −0.341; GE-HTS (composite Z-score) (OXPHOS gene expression; [3]): 0.110; MTT (composite Z-score) [1, 3]: −0.826; cyt c (composite Z-score) (cytochrome c; [3]): 0.272; nucOX (composite Z-score) (nuOXPHOS transcripts; [3]): 0.088; ROS (composite Z-score) (reactive oxygen species; [3]): 0.862; ΔΨm (composite Z-score) [2, 3]: 0.088

**Q.** For `COc1cc([C@@H]2c3cc4c(cc3[C@H](O)[C@H]3COC(=O)[C@@H]23)OCO4)cc(OC)c1OC` [picropodophyllotoxin, reference compound], which mitoOX (mtOXPHOS transcripts; [4]) is on record?
**A.** The mitoOX was 1.129.

**Q.** And the Viability (C2C12 myotubes; [4])?
**A.** The Viability was −0.107.

**Q.** What about the GEHTS_Zscore (OXPHOS gene expression; [5]) of the same compound?
**A.** The GEHTS_Zscore was 2.259.

**Q.** And the GE-HTS (OXPHOS gene expression; [4])?
**A.** Its GE-HTS is 1.512.

**Q.** What about the MTT [1, 4] of the same compound?
**A.** The MTT was −2.402.

**Q.** And the cyt c (cytochrome c; [4])?
**A.** Its cyt c is −1.445.

**Q.** What about the nucOX (nuOXPHOS transcripts; [4]) of the same compound?
**A.** Its nucOX is 1.581.

**Q.** And the “ROS Zscore” value (reactive oxygen species; [5])?
**A.** Its value is −1.202.

**Q.** What about the ROS (reactive oxygen species; [4]) of the same compound?
**A.** The ROS was −1.202.

**Q.** And the ΔΨm [2, 4]?
**A.** The ΔΨm was −0.349.

**Q.** `CC(C)(O)[C@@H]1[C@H]2OC(=O)[C@@H]1[C@]1(O)C[C@H]3O[C@]34C(=O)O[C@H]2[C@]14C` [picrotin] was tested. Which mitoOX (mtOXPHOS transcripts; [6]) did it give?
**A.** Its mitoOX is −0.167.

**Q.** What about the Viability (C2C12 myotubes; [6]) of the same compound?
**A.** Its Viability is −0.278.

**Q.** And the GE-HTS (OXPHOS gene expression; [6])?
**A.** Its GE-HTS is 0.253.

**Q.** And the MTT [1, 6]?
**A.** The MTT was −1.155.

**Q.** And the cyt c (cytochrome c; [6])?
**A.** Its cyt c is 0.184.

**Q.** And the nucOX (nuOXPHOS transcripts; [6])?
**A.** The nucOX was 0.404.

**Q.** What about the ROS (reactive oxygen species; [6]) of the same compound?
**A.** The ROS was 0.917.

**Q.** And the ΔΨm [2, 6]?
**A.** The ΔΨm was −0.167.

**Q.** For `C=C(C)[C@@H]1[C@H]2OC(=O)[C@@H]1[C@]1(O)C[C@H]3O[C@]34C(=O)O[C@H]2[C@]14C` [picrotoxinin], which mitoOX (mtOXPHOS transcripts; [7]) is on record?
**A.** Its mitoOX is −0.551.

**Q.** And the Viability (C2C12 myotubes; [7])?
**A.** The Viability was −1.116.

**Q.** And the GE-HTS (OXPHOS gene expression; [7])?
**A.** Its GE-HTS is −0.512.

**Q.** What about the MTT [1, 7] of the same compound?
**A.** The MTT was −1.611.

**Q.** What about the cyt c (cytochrome c; [7]) of the same compound?
**A.** The cyt c was 0.172.

**Q.** And the nucOX (nuOXPHOS transcripts; [7])?
**A.** Its nucOX is −0.408.

**Q.** What about the ROS (reactive oxygen species; [7]) of the same compound?
**A.** The ROS was 1.094.

**Q.** What about the ΔΨm [2, 7] of the same compound?
**A.** Its ΔΨm is −1.064.

**Q.** For `O=c1[nH]c2ccccc2n1C1CCN(CCCC(c2ccc(F)cc2)c2ccc(F)cc2)CC1` [pimozide], which mitoOX (mtOXPHOS transcripts; [8]) is on record?
**A.** The mitoOX was −0.648.

**Q.** And the mitoOX (mtOXPHOS transcripts; [4])?
**A.** The mitoOX was 0.386.

**Q.** And the Viability (C2C12 myotubes; [8])?
**A.** The Viability was 0.494.

**Q.** And the Viability (C2C12 myotubes; [4])?
**A.** Its Viability is 0.146.

**Q.** What about the GE-HTS (OXPHOS gene expression; [8]) of the same compound?
**A.** The GE-HTS was −0.548.

**Q.** And the GE-HTS (OXPHOS gene expression; [4])?
**A.** Its GE-HTS is 0.722.

**Q.** And the MTT [1, 8]?
**A.** The MTT was −0.375.

**Q.** And the MTT [1, 4]?
**A.** The MTT was −0.447.

**Q.** And the cyt c (cytochrome c; [8])?
**A.** Its cyt c is −0.531.

**Q.** And the cyt c (cytochrome c; [4])?
**A.** The cyt c was −0.121.

**Q.** And the nucOX (nuOXPHOS transcripts; [8])?
**A.** The nucOX was −0.438.

**Q.** And the nucOX (nuOXPHOS transcripts; [4])?
**A.** Its nucOX is 0.857.

**Q.** And the ROS (reactive oxygen species; [8])?
**A.** The ROS was 2.196.

**Q.** And the ROS (reactive oxygen species; [4])?
**A.** The ROS was 1.432.

**Q.** What about the ΔΨm [2, 8] of the same compound?
**A.** The ΔΨm was −0.170.

**Q.** What about the ΔΨm [2, 4] of the same compound?
**A.** The ΔΨm was −0.381.

**Q.** `CC(N/C(=N\C#N)Nc1ccncc1)C(C)(C)C` (stereo not drawn) [pinacidil] was tested. Which mitoOX (mtOXPHOS transcripts) did it give?
**A.** Its mitoOX is −0.498.

**Q.** And the mitoOX (mtOXPHOS transcripts; [4])?
**A.** The mitoOX was −0.814.

**Q.** And the Viability (C2C12 myotubes)?
**A.** Its Viability is −0.477.

**Q.** And the Viability (C2C12 myotubes; [4])?
**A.** The Viability was −0.062.

**Q.** And the GE-HTS (OXPHOS gene expression)?
**A.** The GE-HTS was −0.146.

**Q.** What about the GE-HTS (OXPHOS gene expression; [4]) of the same compound?
**A.** Its GE-HTS is −0.515.

**Q.** And the MTT [1]?
**A.** Its MTT is −0.889.

**Q.** And the MTT [1, 4]?
**A.** The MTT was −0.142.

**Q.** And the cyt c (cytochrome c)?
**A.** Its cyt c is 0.027.

**Q.** And the cyt c (cytochrome c; [4])?
**A.** The cyt c was 1.030.

**Q.** And the nucOX (nuOXPHOS transcripts)?
**A.** Its nucOX is 0.038.

**Q.** And the nucOX (nuOXPHOS transcripts; [4])?
**A.** The nucOX was −0.301.

**Q.** And the ROS (reactive oxygen species)?
**A.** The ROS was 0.383.

**Q.** And the ROS (reactive oxygen species; [4])?
**A.** The ROS was 0.655.

**Q.** And the ΔΨm [2]?
**A.** Its ΔΨm is −0.614.

**Q.** And the ΔΨm [2, 4]?
**A.** Its ΔΨm is −0.949.

**Q.** `CCn1cc(C(=O)O)c(=O)c2cnc(N3CCNCC3)nc21` [pipemidic acid] was tested. Which mitoOX (mtOXPHOS transcripts; [7]) did it give?
**A.** Its mitoOX is −0.333.

**Q.** And the Viability (C2C12 myotubes; [7])?
**A.** Its Viability is −0.716.

**Q.** What about the GE-HTS (OXPHOS gene expression; [7]) of the same compound?
**A.** The GE-HTS was 0.045.

**Q.** And the MTT [1, 7]?
**A.** Its MTT is −0.367.

**Q.** And the cyt c (cytochrome c)?
**A.** The cyt c was 0.101.

**Q.** What about the cyt c (cytochrome c; [7]) of the same compound?
**A.** The cyt c was 0.140.

**Q.** And the nucOX (nuOXPHOS transcripts; [7])?
**A.** Its nucOX is 0.264.

**Q.** What about the ROS (reactive oxygen species; [7]) of the same compound?
**A.** Its ROS is 0.010.

**Q.** And the ΔΨm [2, 7]?
**A.** The ΔΨm was −0.736.

**Q.** What does the source list for `CC[N+]1(C)CCCC(OC(=O)C(O)(c2ccccc2)c2ccccc2)C1` (stereo not drawn) [pipenzolate]?
**A.** mitoOX (mtOXPHOS transcripts; [7]): −0.569; Viability (C2C12 myotubes; [7]): 0.001; GE-HTS (OXPHOS gene expression; [7]): −0.495; MTT [1, 7]: 0.060; cyt c (cytochrome c): 0.192; cyt c (cytochrome c; [7]): −0.954; nucOX (nuOXPHOS transcripts; [7]): −0.411; ROS (reactive oxygen species; [7]): 0.166; ΔΨm [2, 7]: −0.205

**Q.** What does the source list for `CCN1CCN(C(=O)N[C@@H](C(=O)N[C@@H]2C(=O)N3[C@@H]2SC(C)(C)[C@@H]3C(=O)O)c2ccccc2)C(=O)C1=O` [piperacillin]?
**A.** mitoOX (mtOXPHOS transcripts; [4]): −0.857; Viability (C2C12 myotubes; [4]): −0.990; GE-HTS (OXPHOS gene expression; [4]): −0.548; MTT [1, 4]: −1.188; cyt c (cytochrome c; [4]): 0.544; nucOX (nuOXPHOS transcripts; [4]): −0.339; ROS (reactive oxygen species; [4]): 0.645; ΔΨm [2, 4]: −0.150

**Q.** What does the source list for `O=C(CCBr)N1CCN(C(=O)CCBr)CC1` [pipobroman]?
**A.** mitoOX (mtOXPHOS transcripts): −1.219; Viability (C2C12 myotubes): −0.792; GE-HTS (OXPHOS gene expression): −1.074; MTT [1]: −1.907; cyt c (cytochrome c): 0.441; nucOX (nuOXPHOS transcripts): −0.918; ROS (reactive oxygen species): 0.342; ΔΨm [2]: −0.580

**Q.** For `Nc1ccc(C(=O)[O-])cc1.[K+]` [potassium p-aminobenzoate], which mitoOX (mtOXPHOS transcripts; [6]) is on record?
**A.** Its mitoOX is −0.673.

**Q.** And the Viability (C2C12 myotubes; [6])?
**A.** The Viability was −0.277.

**Q.** And the GE-HTS (OXPHOS gene expression; [6])?
**A.** The GE-HTS was −1.001.

**Q.** What about the MTT [1, 6] of the same compound?
**A.** Its MTT is −1.445.

**Q.** What about the cyt c (cytochrome c; [6]) of the same compound?
**A.** The cyt c was 0.519.

**Q.** What about the nucOX (nuOXPHOS transcripts; [6]) of the same compound?
**A.** Its nucOX is −1.085.

**Q.** What about the ROS (reactive oxygen species; [6]) of the same compound?
**A.** Its ROS is 0.818.

**Q.** What about the ΔΨm [2, 6] of the same compound?
**A.** The ΔΨm was −0.826.
